Data from patent US20190364899A1, “MICROBIOCIDAL OXADIAZOLE DERIVATIVES” (SYNGENTA PARTICIPATIONS AG, priority 2015, published 2019).
Read-outs that look alike come from different tables or passages of the source.

Key:
[1] = test system: Glomerella Lagenarium (Colletotrichum Lagenarium); assay: Fungicidal activity against Glomerella lagenarium (Colletotrichum lagenarium) liquid culture / cucumber / preventative (anthracnose); format: cell-based; details: Colletotrichum orbiculare, read-out: disease control
Protocol: (§1) General examples of leaf disk tests in well plates: Leaf disks or leaf segments of various plant species are cut from plants grown in a greenhouse. The cut leaf disks or segments are placed in multiwell plates (24-well format) onto water agar. The leaf disks are sprayed with a test solution before (preventative) or after (curative) inoculation. Compounds to be tested are prepared as DMSO solutions (max. 10 mg/ml) which are diluted to the appropriate concentration with 0.025% Tween20 just before spraying. The inoculated leaf disks or segments are incubated under defined conditions (temperature, relative humidity, light, etc.) according to the respective test system. A single evaluation of disease level is carried out 3 to 14 days after inoculation, depending on the pathosystem. Percent disease control relative to the untreated check leaf disks or segments is then calculated. General examples of liquid culture tests in well plates: Mycelia fragments or conidia suspensions of a fungus prepared either freshly from liquid cultures of the fungus or from cryogenic storage, are directly mixed into nutrient broth. DMSO solutions of the test compound (max. 10 mg/ml) are diluted with 0.025% Tween20 by a factor of 50 and 10 μl of this solution is pipetted into a microtiter plate (96-well format). The nutrient broth containing the fungal spores/mycelia fragments is then added to give an end concentration of the tested compound. The test plates are incubated in the dark at 24° C. and 96% relative humidity. The inhibition of fungal growth is determined photometrically after 2 to 7 days, depending on the pathosystem, and percent antifungal activity relative to the untreated check is calculated.
Example 4: Fungicidal Activity Against Glomerella Lagenarium (Colletotrichum Lagenarium) Liquid Culture/Cucumber/Preventative (Anthracnose)
Conidia of the fungus from cryogenic storage are directly mixed into nutrient broth (PDB—potato dextrose broth). After placing a (DMSO) solution of test compound into a microtiter plate (96-well format), the nutrient broth containing the fungal spores is added. The test plates are incubated at 24° C. and the inhibition of growth is measured photometrically 3 to 4 days after application.
The following compounds at 20 ppm in the applied formulation give at least 80% disease control in this test when compared to untreated control under the same conditions, which show extensive disease development.

[2] = test system: Phakopsora pachyrhizi; assay: Fungicidal activity against Phakopsora pachyrhizi / soybean / leaf disc preventative (Asian soybean rust); format: in vivo; details: foliar, 200 ppm in the applied formulation, soybean leaf disks, inoculated one day after application, compared to untreated, read-out: disease control
Protocol: as §1
Example 3: Fungicidal Activity Against Phakopsora pachyrhizi/Soybean/Leaf Disc Preventative (Asian Soybean Rust)
Soybean leaf disks are placed on water agar in multiwell plates (24-well format) and sprayed with the formulated test compound diluted in water. One day after application leaf discs are inoculated by spraying a spore suspension on the lower leaf surface. After an incubation period in a climate cabinet of 24-36 hours in darkness at 20° C. and 75% rh leaf disc are kept at 20° C. with 12 h light/day and 75% rh. The activity of a compound is assessed as percent disease control compared to untreated when an appropriate level of disease damage appears in untreated check leaf disks (12 to 14 days after application).
(§2) The following compounds at 200 ppm in the applied formulation give at least 80% disease control in this test when compared to untreated control leaf disks under the same conditions, which show extensive disease development.

[3] = test system: Puccinia recondita f, Sp. Tritici; assay: Fungicidal activity against Puccinia recondita f. sp. tritici / wheat / leaf disc preventative (brown rust); format: in vivo; details: foliar, 200 ppm in the applied formulation, wheat leaf segments cv. Kanzler, inoculated 1 day after application, compared to untreated, read-out: disease control
Protocol: as §1
Example 1: Fungicidal Activity Against Puccinia recondita f, Sp. Tritici/Wheat/Leaf Disc Preventative (Brown Rust)
Wheat leaf segments cv. Kanzler were placed on agar in multiwell plates (24-well format) and sprayed with the formulated test compound diluted in water. The leaf disks were inoculated with a spore suspension of the fungus 1 day after application. The inoculated leaf segments were incubated at 19° C. and 75% relative humidity (rh) under a light regime of 12 hours light/12 hours darkness in a climate cabinet and the activity of a compound was assessed as percent disease control compared to untreated when an appropriate level of disease damage appears in untreated check leaf segments (7 to 9 days after application).
as §2

[4] = test system: Puccinia Recondite f. Sp. Tritici; assay: Fungicidal activity against Puccinia recondita f. sp. tritici / wheat / leaf disc curative (brown rust); format: in vivo; details: foliar, 24 h, 200 ppm in the applied formulation, wheat leaf segments cv. Kanzler, applied 1 day after inoculation, compared to untreated, read-out: disease control
Protocol: as §1
Example 2: Fungicidal Activity Against Puccinia Recondite f. Sp. Tritici Wheat/Leaf Disc Curative (Brown Rust)
Wheat leaf segments cv. Kanzler are placed on agar in multiwell plates (24-well format). The leaf segments are then inoculated with a spore suspension of the fungus. Plates were stored in darkness at 19° C. and 75% relative humidity. The formulated test compound diluted in water was applied 1 day after inoculation. The leaf segments were incubated at 19° C. and 75% relative humidity under a light regime of 12 hours light/12 hours darkness in a climate cabinet and the activity of a compound was assessed as percent disease control compared to untreated when an appropriate level of disease damage appears in untreated check leaf segments (6 to 8 days after application).
as §2

[5] = 20 ppm in the applied formulation, liquid culture in PDB, growth inhibition measured photometrically 3 to 4 days after application, compared to untreated

| SMILES | inhibition of growth at 20 ppm [1, 5] | pest or weed control at 200 ppm [2] | pest or weed control at 200 ppm [3] | pest or weed control at 200 ppm [4] | inhibition of growth at 20 ppm [1] |
| --- | --- | --- | --- | --- | --- |
| O=C(NCc1ccc(-c2noc(C(F)(F)F)n2)cc1)NCc1ccco1 [Compound 2.11, 1-(2-furylmethyl)-3-[[4-[5-(trifluoromethyl)-l,2,4-oxadiazol-3-yl]phenyl]methyl]urea] | ≥ 80% |  |  |  |  |
| O=C(NCc1ccc(-c2noc(C(F)(F)F)n2)cc1)Nc1ccccc1 [Compound 2.7, 1-phenyl-3-[[4-[5-(trifluoromethyl)-1,2,4-oxadiazol-3-yl]phenyl]methyl]urea] | ≥ 80% | ≥ 80% | ≥ 80% |  |  |
| O=C(NCc1ccc(-c2noc(C(F)(F)F)n2)cn1)Nc1ccccc1 [Compound 2.5, 1-phenyl-3-[[5-[5-(trifluoromethyl)-1,2,4-oxadiazol-3-yl]-2-pyridyl]methyl]urea] | ≥ 80% |  | ≥ 80% |  |  |
| CC1(NC(=O)NCc2ccc(-c3noc(C(F)(F)F)n3)cc2)CC1 [Compound 2.25, 1-(1-methylcyclopropyl)-3-[[4-[5-(trifluoromethyl)-1,2,4-oxadiazol-3-yl]phenyl]methyl]urea] |  | ≥ 80% |  |  |  |
| O=C(NCc1ccccc1)NCc1ccc(-c2noc(C(F)(F)F)n2)cn1 [Compound 2.12, 1-benzyl-3-[[5-[5-(trifluoromethyl)-1,2,4-oxadiazol-3-yl]-2-pyridyl]methyl]urea] | ≥ 80% |  | ≥ 80% |  |  |
| O=C(NCc1ccc(-c2noc(C(F)(F)F)n2)cc1)NC1CCC1 [Compound 2.9, 1-cyclobutyl-3-[[4-[5-(trifluoromethyl)-1,2,4-oxadiazol-3-yl]phenyl]methyl]urea] | ≥ 80% |  | ≥ 80% |  |  |
| O=C(NCc1ccc(-c2noc(C(F)(F)F)n2)cc1)NC1COC1 [Compound 2.23, 1-(oxetan-3-yl)-3-[[4-[5-(trifluoromethyl)-1,2,4-oxadiazol-3-yl]phenyl]methyl]urea] |  | ≥ 80% | ≥ 80% |  |  |
| CCN(C(=O)NCc1ccc(-c2noc(C(F)(F)F)n2)cc1)C1CC1 [Compound 2.27, 1-cyclopropyl-1-ethyl-3-[[4-[5-(trifluoromethyl)-1,2,4-oxadiazol-3-yl]phenyl]methyl]urea] | ≥ 80% | ≥ 80% | ≥ 80% | ≥ 80% |  |
| O=C(NCc1ccc(-c2noc(C(F)(F)F)n2)cn1)OCc1ccccc1 [Compound 1.6, benzyl N-[[5-[5-(trifluoromethyl)-l,2,4-oxadiazol-3-yl]-2-pyridyl]methyl] carbamate] | ≥ 80% |  | ≥ 80% | ≥ 80% |  |
| CN(C(=O)NCc1ccc(-c2noc(C(F)(F)F)n2)cc1)C1CCC1 [Compound 2.26, 1-cyclobutyl-1-methyl-3-[[4-[5-(trifluoromethyl)-1,2,4-oxadiazol-3-yl]phenyl]methyl]urea] | ≥ 80% | ≥ 80% | ≥ 80% | ≥ 80% |  |
| CCN(CC1CC1)C(=O)NCc1ccc(-c2noc(C(F)(F)F)n2)cc1 [Compound 2.29, 1-(cyclopropylmethyl)-l-ethyl-3-[[4-[5-(trifluoromethyl)-1,2,4-oxadiazol-3-yl]phenyl]methyl]urea] | ≥ 80% | ≥ 80% | ≥ 80% |  |  |
| O=C(NCc1ccc(-c2noc(C(F)(F)F)n2)cn1)Nc1ccc(F)cc1 [Compound 2.13, 1-(4-fluorophenyl)-3-[[5-[5-(trifluoromethyl)-1,2,4-oxadiazol-3-yl]-2-pyridyl]methyl]urea] |  |  | ≥ 80% |  |  |
| O=C(NCc1ccc(-c2noc(C(F)(F)F)n2)cn1)Oc1ccccc1 [Compound 1.5, phenyl N-[[5-[5-(trifluoromethyl)-1,2,4-oxadiazol-3-yl)-2-pyridyl]methyl] carbamate] |  |  |  |  | ≥ 80% |
| O=C(NCc1ccc(-c2noc(C(F)(F)F)n2)cn1)Nc1cccc(F)c1 [Compound 2.17, 1-(3-fluorophenyl)-3-[[5-[5-(trifluoromethyl)-1,2,4-oxadiazol-3-yl]-2-pyridyl]methyl]urea] | ≥ 80% | ≥ 80% | ≥ 80% | ≥ 80% |  |
| O=C(NCc1ccc(-c2noc(C(F)(F)F)n2)cc1)NC1CCCCC1 [Compound 2.6, 1-cyclohexyl-3-[[4-[5-(trifluoromethyl)-1,2,4-oxadiazol-3-yl]phenyl]methyl]urea] |  | ≥ 80% |  |  |  |
| O=C(NCc1ccc(-c2noc(C(F)(F)F)n2)cc1)NC1CCCC1 [Compound 2.10, 1-cyclopentyl-3-[[4-[5-(trifluoromethyl)-1,2,4-oxadiazol-3-yl]phenyl]methyl]urea] | ≥ 80% |  | ≥ 80% |  |  |
| O=C(NCc1ccc(-c2noc(C(F)(F)F)n2)cn1)NCc1ccco1 [Compound 2.16] | ≥ 80% |  | ≥ 80% |  |  |
| O=C(NCc1ccc(-c2noc(C(F)(F)F)n2)cc1)OCc1ccccc1 [Compound 1.4, benzyl N-[[4-[5-(trifluoromethyl)-1,2,4-oxadiazol-3-yl]phenyl]methyl] carbamate] | ≥ 80% |  | ≥ 80% |  |  |
| N#CC1(NC(=O)NCc2ccc(-c3noc(C(F)(F)F)n3)cc2)CC1 [Compound 2.24, 1-(1-cyanocyclopropyl)-3-[[4-[5-(trifluoromethyl)-1,2,4-oxadiazol-3-yl]phenyl]methyl]urea] |  | ≥ 80% | ≥ 80% | ≥ 80% |  |
| O=C(NCc1ccc(-c2noc(C(F)(F)F)n2)cn1)Nc1ccccc1F [Compound 2.18, 1-(2-fluorophenyl)-3-[[5-[5-(trifluoromethyl)-1,2,4-oxadiazol-3-yl]-2-pyridyl]methyl]urea] | ≥ 80% |  | ≥ 80% |  |  |
| O=C(NCc1ccccc1)NCc1ccc(-c2noc(C(F)(F)F)n2)cc1 [Compound 2.8, 1-benzyl-3-[[4-[5-(trifluoromethyl)-1,2,4-oxadiazol-3-yl]phenyl]methyl]urea] | ≥ 80% |  | ≥ 80% |  |  |
| O=C(NCc1ccc(-c2noc(C(F)(F)F)n2)cn1)Nc1ccc(Cl)cc1 [Compound 2.15, 1-(4-chlorophenyl)-3-[[5-[5-(trifluoromethyl)-1,2,4-oxadiazol-3-yl]-2-pyridyl]methyl]urea] | ≥ 80% |  | ≥ 80% |  |  |
| O=C(NCc1ccc(-c2noc(C(F)(F)F)n2)cn1)Nc1ccccc1Cl [Compound 2.19, 1-(2-chlorophenyl)-3-[[5-[5-(trifluoromethyl)-1,2,4-oxadiazol-3-yl]-2-pyridyl]methyl]urea] | ≥ 80% | ≥ 80% | ≥ 80% |  |  |
